Patent publication US8227428B2, “Anti-infammatory macrolide” (Glaxo Group Limited, priority 2009, dated 2012)

Assays:
[1] = In vitro stability in human plasma; assay type: in vitro ADME; conditions: 37° C., after 24 hours
Description: (§1) An in vitro stability study in human whole blood and plasma is carried out over 24 hours at 37° C. Drug-free freshly collected human blood (CPD—citrate-phosphate-dextrose is used for all blood collections as anticoagulant) and plasma are spiked with a previously prepared standard solution of test compound to a final concentration of 2000 ng/mL. For each compound blood and plasma are spiked in duplicate and incubated for 24 hours. Two separate aliquots of blood or plasma (50 μL) are sampled from each incubation mixture at 0, 15, 30, 60, 120, 240 and 1440 minutes. All aliquots are mixed with an equal volume of water (50 μL) and extracted with 300 μL of acetonitrile/methanol (2:1) containing internal standard (roxithromycin). The samples are then vortexed, centrifuged and analysed by LC/MS/MS (MRM mode). Results are expressed as the percentage of compound remaining, expressed as the ratio of analyte/internal standard.

[2] = Stability in buffer solutions pH 2 to pH 8 at 25° C.; assay type: physicochemical
Description: Stability in buffer solutions pH 2 to pH 8 at 25° C., and in bio-relevant media (SGF pH 1.6, Fasted SIF pH 6.5 and Fed SIF pH 5.0) at 37° C., during 24 hours is monitored. The samples are analysed by LC/MS.
Buffer Solutions and Physiologically Relevant Media Used in Stability Assay:
LC Conditions: Instrument HP1100
Column: Waters XBridge C18, 2.1×50 mm, 3.5 μm
Guard column: Waters XBridge C18, 2.1×10 mm, 3.5 μm
• A) 0.1% HCOOH/H2O • B) 0.1% HCOOH/CH3CN Gradient Timetable: […]
Flow: 0.3 mL/min Column temp.: 25° C. Sample temp.: 25° C. (for stability assay in buffer solutions) • 37° C. (for stability assay in bio-relevant media) Injector volume: 3 μL (without injection program) MS Conditions: Instrument HP MS API-ES, positive ion mode Mass Range: 150-1500 Fragmentor: 100 Gain: 1.0 Treshold: 150 Step size: 0.20 Gas Temperature: 350° C. Drying Gas Flow: 13 L/min Nebulizer Pressure: 35 psig Capillary Voltage Positive 4000 V • Negative 4000 V Sample Preparation: a) For Stability Assay in Buffer Solutions
Compounds are dissolved in CH3CN to produce a 1 mg/mL stock solution. The stock solution is diluted to a concentration of 0.2 mg/mL (1 mL solution in 4 mL buffer) with appropriate buffer to produce a working solution.
Each solution at each pH is then dispatched into vials that are sealed and stored at room temperature in order to be analyzed at the proper time point. Before analysis, pH values of prepared sample solutions are checked and adjusted if neccessary.

[3] = In vitro stability in human whole blood; assay type: in vitro ADME; conditions: 37° C., after 24 hours
Description: as §1

## CC[C@H]1OC(=O)[C@H](C)[C@@H](O[C@H]2C[C@@](C)(OC)[C@@H](OC(=O)CCN(CC)CC)[C@H](C)O2)[C@H](C)[C@@H](O[C@@H]2O[C@H](C)C[C@H](NC)[C@H]2O)[C@](C)(OC)C[C@@H](C)C(=O)N[C@H](C)[C@@H](O)[C@]1(C)O [Example 2, 3′-N-Demethyl-4″-O-(3-diethylaminopropionoyl)-6-O-methyl-9a-aza-9a-homoerythromycin A]
[1]
  compound remaining in plasma: less than 2%
[2]; 25° C., during 24 hours
  stability in buffers at pH 7 and at pH 8: showed instability
[2]; pH 2, 25° C., 2 h
  Percentage (Area %) of the compound observed in buffers: 100 Area %
[2]; pH 2, 25° C., 4 h
  Percentage (Area %) of the compound observed in buffers: 100 Area %
[2]; pH 2, 25° C., 6 h
  Percentage (Area %) of the compound observed in buffers: 98.7 Area %
[2]; pH 2, 25° C., 8 h
  Percentage (Area %) of the compound observed in buffers: 98.5 Area %
[2]; pH 2, 25° C., 12 h
  Percentage (Area %) of the compound observed in buffers: 97.6 Area %
[2]; pH 2, 25° C., 14 h
  Percentage (Area %) of the compound observed in buffers: 97.6 Area %
[2]; pH 2, 25° C., 18 h
  Percentage (Area %) of the compound observed in buffers: 97.5 Area %
[2]; pH 2, 25° C., 20 h
  Percentage (Area %) of the compound observed in buffers: 97.3 Area %
[2]; pH 2, 25° C., 22 h
  Percentage (Area %) of the compound observed in buffers: 97.2 Area %
[2]; pH 2, 25° C., 24 h
  Percentage (Area %) of the compound observed in buffers: 97.2 Area %
[2]; pH 2, 25° C., Initial
  Percentage (Area %) of the compound observed in buffers: 100 Area %
[2]; pH 3, 25° C., 2 h
  Percentage (Area %) of the compound observed in buffers: 100 Area %
[2]; pH 3, 25° C., 4 h
  Percentage (Area %) of the compound observed in buffers: 100 Area %
[2]; pH 3, 25° C., 6 h
  Percentage (Area %) of the compound observed in buffers: 98.8 Area %
[2]; pH 3, 25° C., 8 h
  Percentage (Area %) of the compound observed in buffers: 97.5 Area %
[2]; pH 3, 25° C., 12 h
  Percentage (Area %) of the compound observed in buffers: 97.3 Area %
[2]; pH 3, 25° C., 14 h
  Percentage (Area %) of the compound observed in buffers: 97.3 Area %
[2]; pH 3, 25° C., 18 h
  Percentage (Area %) of the compound observed in buffers: 97.0 Area %
[2]; pH 3, 25° C., 20 h
  Percentage (Area %) of the compound observed in buffers: 97.0 Area %
[2]; pH 3, 25° C., 22 h
  Percentage (Area %) of the compound observed in buffers: 97.0 Area %
[2]; pH 3, 25° C., 24 h
  Percentage (Area %) of the compound observed in buffers: 96.9 Area %
[2]; pH 3, 25° C., Initial
  Percentage (Area %) of the compound observed in buffers: 100 Area %
[2]; pH 4, 25° C., 2 h
  Percentage (Area %) of the compound observed in buffers: 100 Area %
[2]; pH 4, 25° C., 4 h
  Percentage (Area %) of the compound observed in buffers: 100 Area %
[2]; pH 4, 25° C., 6 h
  Percentage (Area %) of the compound observed in buffers: 100 Area %
[2]; pH 4, 25° C., 8 h
  Percentage (Area %) of the compound observed in buffers: 99.3 Area %
[2]; pH 4, 25° C., 12 h
  Percentage (Area %) of the compound observed in buffers: 99.0 Area %
[2]; pH 4, 25° C., 14 h
  Percentage (Area %) of the compound observed in buffers: 98.5 Area %
[2]; pH 4, 25° C., 18 h
  Percentage (Area %) of the compound observed in buffers: 98.5 Area %
[2]; pH 4, 25° C., 20 h
  Percentage (Area %) of the compound observed in buffers: 98.4 Area %
[2]; pH 4, 25° C., 22 h
  Percentage (Area %) of the compound observed in buffers: 98.4 Area %
[2]; pH 4, 25° C., 24 h
  Percentage (Area %) of the compound observed in buffers: 98.3 Area %
[2]; pH 4, 25° C., Initial
  Percentage (Area %) of the compound observed in buffers: 100 Area %
[2]; pH 5, 25° C., 2 h
  Percentage (Area %) of the compound observed in buffers: 98.5 Area %
[2]; pH 5, 25° C., 4 h
  Percentage (Area %) of the compound observed in buffers: 98.5 Area %
[2]; pH 5, 25° C., 6 h
  Percentage (Area %) of the compound observed in buffers: 98.4 Area %
[2]; pH 5, 25° C., 8 h
  Percentage (Area %) of the compound observed in buffers: 98.4 Area %
[2]; pH 5, 25° C., 12 h
  Percentage (Area %) of the compound observed in buffers: 98.4 Area %
[2]; pH 5, 25° C., 14 h
  Percentage (Area %) of the compound observed in buffers: 98.3 Area %
[2]; pH 5, 25° C., 18 h
  Percentage (Area %) of the compound observed in buffers: 98.3 Area %
[2]; pH 5, 25° C., 20 h
  Percentage (Area %) of the compound observed in buffers: 98.3 Area %
[2]; pH 5, 25° C., 22 h
  Percentage (Area %) of the compound observed in buffers: 98.3 Area %
[2]; pH 5, 25° C., 24 h
  Percentage (Area %) of the compound observed in buffers: 98.0 Area %
[2]; pH 5, 25° C., Initial
  Percentage (Area %) of the compound observed in buffers: 100 Area %
[2]; pH 6, 25° C., 2 h
  Percentage (Area %) of the compound observed in buffers: 99.6 Area %
[2]; pH 6, 25° C., 4 h
  Percentage (Area %) of the compound observed in buffers: 99.4 Area %
[2]; pH 6, 25° C., 6 h
  Percentage (Area %) of the compound observed in buffers: 99.0 Area %
[2]; pH 6, 25° C., 8 h
  Percentage (Area %) of the compound observed in buffers: 99.0 Area %
[2]; pH 6, 25° C., 12 h
  Percentage (Area %) of the compound observed in buffers: 99.0 Area %
[2]; pH 6, 25° C., 14 h
  Percentage (Area %) of the compound observed in buffers: 98.5 Area %
[2]; pH 6, 25° C., 18 h
  Percentage (Area %) of the compound observed in buffers: 98.3 Area %
[2]; pH 6, 25° C., 20 h
  Percentage (Area %) of the compound observed in buffers: 98.2 Area %
[2]; pH 6, 25° C., 22 h
  Percentage (Area %) of the compound observed in buffers: 98.2 Area %
[2]; pH 6, 25° C., 24 h
  Percentage (Area %) of the compound observed in buffers: 98.1 Area %
[2]; pH 6, 25° C., Initial
  Percentage (Area %) of the compound observed in buffers: 100 Area %
[2]; pH 7, 25° C., 2 h
  Percentage (Area %) of the compound observed in buffers: 97.8 Area %
[2]; pH 7, 25° C., 4 h
  Percentage (Area %) of the compound observed in buffers: 93.4 Area %
[2]; pH 7, 25° C., 6 h
  Percentage (Area %) of the compound observed in buffers: 89.8 Area %
[2]; pH 7, 25° C., 8 h
  Percentage (Area %) of the compound observed in buffers: 89.3 Area %
[2]; pH 7, 25° C., 12 h
  Percentage (Area %) of the compound observed in buffers: 85.1 Area %
[2]; pH 7, 25° C., 14 h
  Percentage (Area %) of the compound observed in buffers: 84.3 Area %
[2]; pH 7, 25° C., 18 h
  Percentage (Area %) of the compound observed in buffers: 84.0 Area %
[2]; pH 7, 25° C., 20 h
  Percentage (Area %) of the compound observed in buffers: 81.3 Area %
[2]; pH 7, 25° C., 22 h
  Percentage (Area %) of the compound observed in buffers: 79.9 Area %
[2]; pH 7, 25° C., 24 h
  Percentage (Area %) of the compound observed in buffers: 78.4 Area %
[2]; pH 7, 25° C., Initial
  Percentage (Area %) of the compound observed in buffers: 100 Area %
[2]; pH 8, 25° C., 2 h
  Percentage (Area %) of the compound observed in buffers: 92.0 Area %
[2]; pH 8, 25° C., 4 h
  Percentage (Area %) of the compound observed in buffers: 81.7 Area %
[2]; pH 8, 25° C., 6 h
  Percentage (Area %) of the compound observed in buffers: 77.7 Area %
[2]; pH 8, 25° C., 8 h
  Percentage (Area %) of the compound observed in buffers: 71.7 Area %
[2]; pH 8, 25° C., 12 h
  Percentage (Area %) of the compound observed in buffers: 63.4 Area %
[2]; pH 8, 25° C., 14 h
  Percentage (Area %) of the compound observed in buffers: 60.2 Area %
[2]; pH 8, 25° C., 18 h
  Percentage (Area %) of the compound observed in buffers: 54.2 Area %
[2]; pH 8, 25° C., 20 h
  Percentage (Area %) of the compound observed in buffers: 51.1 Area %
[2]; pH 8, 25° C., 22 h
  Percentage (Area %) of the compound observed in buffers: 47.1 Area %
[2]; pH 8, 25° C., 24 h
  Percentage (Area %) of the compound observed in buffers: 44.6 Area %
[2]; pH 8, 25° C., Initial
  Percentage (Area %) of the compound observed in buffers: 100 Area %
[3]
  compound remaining in whole blood: around 41%
